Patent US9758485B2, “Compounds for controlling arthropods” (priority 2013, dated 2017)

Key:
Assay type in all cases: in vivo
[1] = test system: Spodoptera frugiperda; experiment: Spodoptera frugiperda - spray test; details: foliar, 168 h, application rate 100 g/ha, caterpillars on maize leaf discs, after 7 days, read-out: efficacy
Experimental: Spodoptera frugiperda—Spray Test
Solvent: 78.0 parts by weight of acetone and 1.5 parts by weight of dimethylformamide
Emulsifier: alkylaryl polyglycol ether
To produce an appropriate active ingredient formulation, 1 part by weight of active ingredient is dissolved using the specified parts by weight of solvent and made up with water containing an emulsifier concentration of 1000 ppm until the desired concentration is attained. To produce further test concentrations, the preparation is diluted with emulsifier-containing water.
Leaf discs of maize (Zea mays) are sprayed with an active ingredient formulation of the desired concentration and, after drying, populated with caterpillars of the armyworm (Spodoptera frugiperda).
After 7 days, efficacy in % is determined. 100% means that all the caterpillars have been killed; 0% means that no caterpillars have been killed.

[2] = test system: Amblyomma hebraeum; experiment: Amblyomma hebraeum test (tick nymphs, immersion); details: application rate 100 ppm; tick nymphs immersed for one minute; kill after 42 days
Summary of the method: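 Tick nymphs immersed for one minute in compound diluted in water from a DMSO concentrate, then held on filter paper in a Petri dish in a climate-controlled cabinet. Kill (%) scored after 42 days; 100% means all ticks dead, 0% none.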

[3] = test system: Ctenocephalides felis; experiment: Ctenocephalides felis - oral test; details: Ctenocephalides felis, po, 48 h; application rate 100 ppm in citrated cattle blood; adult fleas; kill after 2 days; read-out: efficacy
Summary of the method: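 Oral exposure of unfed adult fleas, roughly 20 per chamber, to compound-spiked citrated cattle blood taken up across a parafilm membrane. Read-out is percent kill at 2 days, where 100% means every flea dead.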

[4] = test system: Lucilia cuprina; experiment: Lucilia cuprina test; details: Lucilia cuprina, 48 h; application rate 100 ppm; L1 larvae in minced horsemeat; kill after 2 days; read-out: efficacy
Summary of the method: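 About 20 L1 larvae placed on minced horsemeat treated with compound, formulated in DMSO and diluted with water to test concentration. Kill in % scored after 2 days (100% = all larvae dead, 0% = none).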

Cc1cc(C(F)(C(F)(F)F)C(F)(F)F)cc(C)c1-n1cc(-c2ccc(Cl)c(C(=O)NC3CC3)c2)cn1 [I-T3-1, 2-chloro-N-cyclopropyl-5-[1-[2,6-dimethyl-4-[1,2,2,2-tetrafluoro-1-(trifluoromethyl)ethyl]phenyl]pyrazol-4-yl]benzamide]
100%: pest or weed control at 100 g/ha [1] | efficacy [2] | pest or weed control at 100 ppm [3] | pest or weed control at 100 ppm [4]
